Measured values reported in patent publication US8741934B2, “Inhibitors of ion channels” (Pfizer Limited, priority 2007, dated 2014).
pIC50: −log10 of the molar value. Read-outs that look alike come from different tables or passages of the source.

Target: T1, hSCN3A sodium channels (Homo sapiens, UniProt Q9NY46)
T1 construct: expressed in transfected cells
Test: hSCN3A electrophysiology, whole-cell patch-clamp or PatchXpress 7000, estimated IC-50 (Table B)
Type: cell-based
Method in brief: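 A 20 msec test pulse to 0 mV followed an 8 sec conditioning prepulse at each cell's measured V1/2. Room-temperature (22-24° C) recordings on HEK cells stably expressing the channel, conventional or PatchXpress.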

[1] = estimated IC-50, hSCN3A cells, whole-cell patch-clamp or PatchXpress 7000, read-out: SCN3A EIC-50

T1 sequence (Q9NY46 whole entry): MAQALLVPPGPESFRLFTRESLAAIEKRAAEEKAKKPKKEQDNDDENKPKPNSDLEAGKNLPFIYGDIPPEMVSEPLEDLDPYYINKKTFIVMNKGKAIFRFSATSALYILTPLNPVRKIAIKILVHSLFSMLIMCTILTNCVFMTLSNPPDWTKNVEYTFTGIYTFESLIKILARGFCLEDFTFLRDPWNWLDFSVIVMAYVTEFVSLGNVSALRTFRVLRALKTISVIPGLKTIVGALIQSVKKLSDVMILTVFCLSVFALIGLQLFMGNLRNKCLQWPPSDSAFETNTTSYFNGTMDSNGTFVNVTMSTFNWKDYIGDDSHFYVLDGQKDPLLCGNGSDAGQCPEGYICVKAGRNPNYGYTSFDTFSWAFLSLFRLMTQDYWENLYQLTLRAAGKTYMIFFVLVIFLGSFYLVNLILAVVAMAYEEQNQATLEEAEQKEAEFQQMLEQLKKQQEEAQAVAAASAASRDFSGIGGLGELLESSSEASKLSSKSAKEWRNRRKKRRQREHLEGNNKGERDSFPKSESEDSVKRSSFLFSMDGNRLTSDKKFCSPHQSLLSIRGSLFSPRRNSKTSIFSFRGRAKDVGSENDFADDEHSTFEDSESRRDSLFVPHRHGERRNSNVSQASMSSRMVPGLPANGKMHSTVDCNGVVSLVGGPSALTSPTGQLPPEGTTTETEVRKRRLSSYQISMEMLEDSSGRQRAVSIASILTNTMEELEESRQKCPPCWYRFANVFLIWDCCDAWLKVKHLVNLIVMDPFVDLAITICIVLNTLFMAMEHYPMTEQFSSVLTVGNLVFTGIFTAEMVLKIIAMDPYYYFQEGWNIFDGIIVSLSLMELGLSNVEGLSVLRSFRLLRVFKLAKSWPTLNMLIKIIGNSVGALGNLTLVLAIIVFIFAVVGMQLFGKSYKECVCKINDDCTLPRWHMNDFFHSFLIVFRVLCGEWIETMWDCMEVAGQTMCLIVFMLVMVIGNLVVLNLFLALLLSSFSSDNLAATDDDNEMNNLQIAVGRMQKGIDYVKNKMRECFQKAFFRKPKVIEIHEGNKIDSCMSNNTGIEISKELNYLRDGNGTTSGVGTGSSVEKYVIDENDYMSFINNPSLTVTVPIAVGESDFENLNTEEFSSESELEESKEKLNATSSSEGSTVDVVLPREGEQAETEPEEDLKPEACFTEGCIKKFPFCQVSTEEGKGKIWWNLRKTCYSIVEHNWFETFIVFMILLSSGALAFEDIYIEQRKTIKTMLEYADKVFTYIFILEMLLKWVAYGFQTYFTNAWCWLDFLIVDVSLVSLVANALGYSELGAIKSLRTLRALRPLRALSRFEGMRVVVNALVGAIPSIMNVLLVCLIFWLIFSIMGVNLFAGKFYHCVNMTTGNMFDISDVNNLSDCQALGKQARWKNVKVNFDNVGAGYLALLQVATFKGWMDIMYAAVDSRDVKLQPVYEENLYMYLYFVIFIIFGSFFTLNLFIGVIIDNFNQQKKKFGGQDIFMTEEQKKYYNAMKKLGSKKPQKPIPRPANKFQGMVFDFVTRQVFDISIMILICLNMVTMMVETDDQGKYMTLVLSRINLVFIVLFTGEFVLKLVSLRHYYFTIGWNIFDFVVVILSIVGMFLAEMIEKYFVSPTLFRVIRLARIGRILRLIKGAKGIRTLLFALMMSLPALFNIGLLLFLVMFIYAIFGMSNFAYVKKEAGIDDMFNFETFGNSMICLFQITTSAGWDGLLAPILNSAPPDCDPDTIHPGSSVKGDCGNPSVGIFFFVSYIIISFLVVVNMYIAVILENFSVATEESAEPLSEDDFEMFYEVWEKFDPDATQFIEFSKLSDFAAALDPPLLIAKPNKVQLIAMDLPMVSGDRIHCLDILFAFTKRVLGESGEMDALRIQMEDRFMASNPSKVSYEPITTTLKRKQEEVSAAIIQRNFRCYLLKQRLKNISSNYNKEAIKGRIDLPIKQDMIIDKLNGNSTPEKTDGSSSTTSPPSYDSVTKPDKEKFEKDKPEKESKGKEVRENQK

Compound	pIC50 [1]	pIC50
O=C(NCc1ccc(F)c(C(F)(F)F)c1)c1ccc(S(=O)(=O)Nc2ncc(Cl)s2)c(F)c1 [Example 316, 4-{[(5-Chloro-1,3-thiazol-2-yl)amino]sulfonyl}-3-fluoro-N-[4-fluoro-3-(trifluoromethyl)benzyl] benzamide]	6.85	–
O=C(NCc1ccc(Cl)c(Cl)c1)c1ccc(S(=O)(=O)Nc2ncc(Cl)s2)c(F)c1 [Example 311, 4-{[(5-Chloro-1,3-thiazol-2-yl)amino]sulfonyl}-N-(3,4-dichlorobenzyl)-3-fluorobenzamide]	7.22	–
CC(C)(NC(=O)c1ccc(S(=O)(=O)Nc2nccs2)cc1)c1ccc(Cl)cc1 [Example 124, N-[1-(4-chlorophenyl)-1-methylethyl]-4-[(1,3-thiazol-2-ylamino)sulfonyl]benzamide]	5.74	–
N#Cc1ccc(OC2CCCN(C(=O)c3ccc(S(=O)(=O)Nc4nccs4)cc3)C2)cc1F (stereo not shown) [Example 193, 4-{[3-(4-Cyano-3-fluorophenoxy)piperidin-1-yl]carbonyl}-N-1,3-thiazol-2-yl-benzenesulfonamide]	5.49	–
O=C(NCc1ccc(C(F)(F)F)cc1)c1ccc(S(=O)(=O)Nc2ncc(Cl)s2)c(F)c1 [Example 315, 4-{[(5-Chloro-1,3-thiazol-2-yl)amino]sulfonyl}-3-fluoro-N-[4-(trifluoromethyl)benzyl] benzamide]	6.96	–
O=C(NCc1ccc(F)c(Cl)c1)c1ccc(S(=O)(=O)Nc2ncc(Cl)s2)c(Cl)c1 [Example 363, 3-Chloro-N-(3-chloro-4-fluorobenzyl)-4-{[(5-chloro-1,3-thiazol-2-yl)amino]sulfonyl} benzamide]	5.92	–
O=C(NCc1ccc(C(F)(F)F)cc1)c1cccc(S(=O)(=O)Nc2nncs2)c1 [Example 350, 3-[(1,3,4-Thiadiazol-2-ylamino)sulfonyl]-N-[4-(trifluoromethyl)benzyl]benzamide]	–	< 5.00
O=C(NCc1ccc(F)c(OC(F)(F)F)c1)c1ccc(S(=O)(=O)Nc2ncc(Cl)s2)cc1F [Example 358, 4-{[(5-Chloro-1,3-thiazol-2-yl)amino]sulfonyl}-2-fluoro-N-[4-fluoro-3-(trifluoromethoxy)benzyl]benzamide]	6.43	–
O=C(c1ccc(S(=O)(=O)Nc2nccs2)cc1)N1CCC(O)(c2cccc(F)c2)CC1 [Example 220, 4-{[4-(3-Fluorophenyl)-4-hydroxypiperidin-1-yl]carbonyl}-N-1,3-thiazol-2-yl-benzenesulfonamide]	< 6.00	–
O=C(NCc1ccc(Cl)c(Cl)c1)c1ccc(S(=O)(=O)Nc2nccs2)cc1 [Example 388, N-(3,4-dichlorobenzyl)-4-[(1,3-thiazol-2-ylamino)sulfonyl]benzamide]	6.96	–
O=C(NCc1cccc(C(F)(F)F)c1F)c1ccc(S(=O)(=O)Nc2ncc(Cl)s2)cc1 [Example 40, 4-{[(5-Chloro-1,3-thiazol-2-yl)amino]sulfonyl}-N-[2-fluoro-3-(trifluoromethyl)benzyl]benzamide]	6.68	–
O=C(NCc1cccc(C(F)(F)F)c1)c1ccc(S(=O)(=O)Nc2nccs2)cc1 [Example 398, 4-[(1,3-Thiazol-2-ylamino)sulfonyl]-N-[3-(trifluoromethyl)benzyl] benzamide]	6.59	–
O=C(c1ccc(S(=O)(=O)Nc2nccs2)cc1)N1CC[C@@H](Oc2ccccc2Cl)C1 [Example 247, 4-{[(3R)-3-(2-chlorophenoxy)pyrrolidin-1-yl]carbonyl}-N-1,3-thiazol-2-yl-benzenesulfonamide]	< 6.00	–
CC(C)(C)CCNC(=O)c1ccc(S(=O)(=O)Nc2ncc(Cl)s2)c(F)c1 [Example 389, 4-{[(5-Chloro-1,3-thiazol-2-yl)amino]sulfonyl}-N-(3,3-dimethylbutyl)-3-fluorobenzamide]	6.21	–
COc1cccc(CC2CCCN(C(=O)c3ccc(S(=O)(=O)Nc4nccs4)cc3)C2)c1 (stereo not shown) [Example 263, 4-{[3-(3-Methoxybenzyl)piperidin-1-yl]carbonyl}-N-1,3-thiazol-2-yl-benzenesulfonamide]	5.95	–
O=C(c1ccc(S(=O)(=O)Nc2nccs2)cc1)N1CCCC(Cc2cccc(F)c2)C1 (stereo not shown) [Example 47, 4-{[3-(3-Fluorobenzyl)piperidin-1-yl]carbonyl}-N-1,3-thiazol-2-ylbenzenesulfonamide]	6.04	–
O=C(NCc1ccc(F)c(OC(F)(F)F)c1)c1ccc(S(=O)(=O)Nc2nccs2)cc1F [Example 331, 2-Fluoro-N-[4-fluoro-3-(trifluoromethoxy)benzyl]-4-[(1,3-thiazol-2-ylamino)sulfonyl] benzamide]	6.05	–
O=C(NCc1ccc(F)c(OC(F)(F)F)c1)c1ccc(S(=O)(=O)Nc2nccs2)c(Cl)c1 [Example 293, 3-Chloro-N-[4-fluoro-3-(trifluoromethoxy)benzyl]-4-[(1,3-thiazol-2-yl-amino)sulfonyl]benzamide]	5.63	–
O=C(NCc1ccc(Cl)c(Cl)c1)c1ccc(S(=O)(=O)Nc2ncc(Cl)s2)cc1 [Example 35, 4-{[(5-Chloro-1,3-thiazol-2-yl)amino]sulfonyl}-N-(3,4-dichlorobenzyl)benzamide]	7.40	–
COc1ccccc1C1CCCN1C(=O)c1ccc(S(=O)(=O)Nc2nccs2)cc1 (stereo not shown) [Example 254, 4-{[2-(2-Methoxyphenyl)pyrrolidin-1-yl]carbonyl}-N-1,3-thiazol-2-yl-benzenesulfonamide]	< 6.00	–
O=C(c1ccc(S(=O)(=O)Nc2nccs2)cc1)N1CCOC[C@H]1c1ccccc1 [Example 48, 4-{[(3R)-3-phenylmorpholin-4-yl]carbonyl}-N-1,3-thiazol-2-ylbenzenesulfonamide]	< 6.00	–
O=C(NCc1ccc(C(F)(F)F)c(F)c1)c1ccc(S(=O)(=O)Nc2ncns2)c(F)c1 [Example 319, 3-Fluoro-N-[3-fluoro-4-(trifluoromethyl)benzyl]-4-[(1,2,4-thiadiazol-5-ylamino)sulfonyl]benzamide]	7.15	–
O=C(NCc1ccc(Cl)c(C(F)(F)F)c1)c1ccc(S(=O)(=O)Nc2nccs2)cc1 [Example 395, N-[4-chloro-3-(trifluoromethyl)benzyl]-4-[(1,3-thiazol-2-ylamino)sulfonyl]benzamide]	7.52	–
O=C(NCc1ccc(C(F)(F)F)cc1)c1ccc(S(=O)(=O)Nc2cncs2)cc1 [Example 14, 4-[(1,3-Thiazol-5-ylamino)sulfonyl]-N-[4-(trifluoromethyl)benzyl]benzamide]	4.55	–
O=C(NCc1ccc(F)cc1)c1ccc(S(=O)(=O)Nc2nccs2)cc1 [Example 92, N-(4-fluorobenzyl)-4-[(1,3-thiazol-2-ylamino)sulfonyl]benzamide]	6.24	–
O=C(NCCOc1cccc(Cl)c1)c1ccc(S(=O)(=O)Nc2nccs2)cc1 [Example 144, N-[2-(3-chlorophenoxy)ethyl]-4-[(1,3-thiazol-2-ylamino)sulfonyl]benzamide]	5.93	–
O=C(c1ccc(S(=O)(=O)Nc2nccs2)cc1)N1CCCC(Oc2ccccc2)C1 (stereo not shown) [Example 277, 4-[(3-Phenoxypiperidin-1-yl)carbonyl]-N-1,3-thiazol-2-yl-benzenesulfonamide]	5.66	–
O=C(NCc1ccc(F)c(Cl)c1)c1ccc(S(=O)(=O)Nc2nccs2)cc1 [Example 401, N-(3-chloro-4-fluorobenzyl)-4-[(1,3-thiazol-2-ylamino)sulfonyl] benzamide]	6.77	–
